According to US10806121B2, “Animal litter containing a pheromone composition” (Sergeant's Pet Care Products, LLC, priority 2014, dated 2020):

Tested on: cats
Assay: Study 1: cat litter preference, pheromone-treated litter versus control litter
Type: in vivo
Settings: for percentage preference (% of the cats using the treated litter): litter treated at 10 μg/3-lb (7.3 μg/kg), choice against control litter over 48 hours, 50% = no effect; for Litter Type Use, g, TRT (weights of litter after 2 days): treated litter box, 10 μg/3-lb, SE = 0.023; for Relative Difference, % / Significantly Different: treated versus control litter weight after 2 days; for effect on cats' litter preference: treated versus control litter, 48 hours
Procedure: In Study 1, four different treatments were tested: Androstenone (ANDRO); cat urinary pheromone, 3-mercapto-3-methyl-1-butanol (CAT); rabbit pheromone, 2-methylbut-2-enal (RP); and both the cat urinary pheromone and the rabbit pheromone (CAT+RP). 40 individual cats were used in this study to assess their preference to or aversion from a control litter versus a litter under one of the four treatments. Each treatment was tested with 10 cats. Litter was divided into 3 lb aliquots, and each aliquot was either used as a control or was mixed with a pheromone (or a pheromone combination) to be tested at a level of 10 μg/3-lb (or 7.3 μg/kg).
On Day 0, each cat was placed into an assigned chamber randomly placed with two litter boxes, one control and one treated. Each of the two litter boxes was weighed and the weight was recorded. The camera in the chamber was properly aligned to give a full view of the chamber and started taping on Day 0. On Day 1, 24 hours after the start of taping on Day 0, each of the two litter boxes in the chamber was weighed and the weight was recorded. On Day 2, 48 hours after the start of taping on Day 0, each of the two litter boxes in the chamber was again weighed. Litter can be disposed of after weighing on Day 2, and the camera was then turned off. The weights of the litter boxes over the 48 hours were used to determine whether the litter was used or not, and at which preference level.
The data were expressed as both a percentage preference (% of the cats using the treated litter in each treatment group) and by the weight of the litter (the litter gets heavier as it is soiled). It was expected that if the added pheromone had no effect on litter preference, 50% of the cats would use the treated litter and 50% would use the control litter. […] Further, the weight difference between a control litter or litter under treatment was used to show the relative strength of the effect of a particular treatment on cat's litter use behavior. During the study, some cats (N=3; 2 in CAT+RP and 1 in RP) spilled their litter and their data were unreliable and were not included.

Question: Which “percentage preference (% of the cats using the treated litter)” value does the source give for `C[C@]12CCC(=O)C[C@@H]1CC[C@@H]1[C@@H]2CC[C@]2(C)C=CC[C@@H]12` [ANDRO, Androstenone] here?
Answer: 50%

Question: And the “Litter Type Use, g, TRT (weights of litter after 2 days)” value?
Answer: 0.571 g

Question: What about the “Relative Difference, %” value of the same compound?
Answer: −11%

Question: What about the “Significantly Different” value of the same compound?
Answer: No

Question: What about the “effect on cats' litter preference” value of the same compound?
Answer: did not provide any attraction

Question: `CC(C)(S)CCO` [CAT, 3-mercapto-3-methyl-1-butanol] was tested. Which “percentage preference (% of the cats using the treated litter)” value did it give?
Answer: 40%

Question: And the “Litter Type Use, g, TRT (weights of litter after 2 days)” value?
Answer: 0.562 g

Question: What about the “Relative Difference, %” value of the same compound?
Answer: −43%

Question: What about the “Significantly Different” value of the same compound?
Answer: Yes

Question: And the “effect on cats' litter preference” value?
Answer: slight aversion
